Assay results as given in ChEMBL document CHEMBL1158853, “Laurencia rigida: chemical investigations of its antifouling dichloromethane extract” (J Nat Prod, 1997).
Counter-ions that a name gives are not always drawn. Active and inactive are the calls of the source. The rule behind the calls is not given here.

What was measured:
Escherichia coli [1] = assay: Antibacterial activity against Escherichia coli at 34 ug by agar diffusion assay; assay type: functional; settings: read-out: IZ
Mycotypha microspora [2] = assay: Antifungal activity against Mycotypha microspora at 34 ug by agar diffusion assay; assay type: functional; settings: read-out: IZ
[3] = system: Aspergillus pseudoglaucus; assay: Antifungal activity Eurotium repens at 34 ug by agar diffusion assay; assay type: functional; settings: read-out: IZ
Microbotryum violaceum [4] = assay: Antifungal activity against Ustilago violacea at 34 ug by agar diffusion assay; assay type: functional; settings: read-out: IZ
Fusarium oxysporum [5] = assay: Antifungal activity against Fusarium oxysporum at 34 ug by agar diffusion assay; assay type: functional; settings: read-out: IZ
Priestia megaterium [6] = assay: Antibacterial activity against Bacillus megaterium at 34 ug by agar diffusion assay; assay type: functional; settings: read-out: IZ
[Chlorella] fusca [7] = Antialgal activity against Chlorella fusca at 34 ug by agar diffusion assay; assay type: functional; settings: Scenedesmus fuscus; read-out: IZ
Escherichia coli [8] = assay: Antibacterial activity against Escherichia coli at 33 ug by agar diffusion assay; assay type: functional; settings: read-out: IZ
Priestia megaterium [9] = assay: Antibacterial activity against Bacillus megaterium at 33 ug by agar diffusion assay; assay type: functional; settings: read-out: IZ
[Chlorella] fusca [10] = Antialgal activity against Chlorella fusca at 33 ug by agar diffusion assay; assay type: functional; settings: Scenedesmus fuscus; read-out: IZ
[11] = system: Aspergillus pseudoglaucus; assay: Antifungal activity Eurotium repens at 33 ug by agar diffusion assay; assay type: functional; settings: read-out: IZ
Fusarium oxysporum [12] = assay: Antifungal activity against Fusarium oxysporum at 33 ug by agar diffusion assay; assay type: functional; settings: read-out: IZ
Mycotypha microspora [13] = assay: Antifungal activity against Mycotypha microspora at 33 ug by agar diffusion assay; assay type: functional; settings: read-out: IZ
Microbotryum violaceum [14] = assay: Antifungal activity against Ustilago violacea at 33 ug by agar diffusion assay; assay type: functional; settings: read-out: IZ
[Chlorella] fusca [15] = Antialgal activity against Chlorella fusca at 40 ug by agar diffusion assay; assay type: functional; settings: Scenedesmus fuscus; read-out: IZ
Fusarium oxysporum [16] = assay: Antifungal activity against Fusarium oxysporum at 40 ug by agar diffusion assay; assay type: functional; settings: read-out: IZ
Microbotryum violaceum [17] = assay: Antifungal activity against Ustilago violacea at 40 ug by agar diffusion assay; assay type: functional; settings: read-out: IZ
Priestia megaterium [18] = assay: Antibacterial activity against Bacillus megaterium at 40 ug by agar diffusion assay; assay type: functional; settings: read-out: IZ
Mycotypha microspora [19] = assay: Antifungal activity against Mycotypha microspora at 40 ug by agar diffusion assay; assay type: functional; settings: read-out: IZ
Escherichia coli [20] = assay: Antibacterial activity against Escherichia coli at 40 ug by agar diffusion assay; assay type: functional; settings: read-out: IZ
[21] = system: Aspergillus pseudoglaucus; assay: Antifungal activity Eurotium repens at 40 ug by agar diffusion assay; assay type: functional; settings: read-out: IZ
[Chlorella] fusca [22] = Antialgal activity against Chlorella fusca at 50 ug by agar diffusion assay; assay type: functional, organism-based; settings: Scenedesmus fuscus
Escherichia coli [23] = assay: Antibacterial activity against Escherichia coli at 50 ug by agar diffusion assay; assay type: functional, organism-based
Priestia megaterium [24] = assay: Antibacterial activity against Bacillus megaterium at 50 ug by agar diffusion assay; assay type: functional, organism-based
[25] = system: Aspergillus pseudoglaucus; assay: Antifungal activity Eurotium repens at 60 ug by agar diffusion assay; assay type: functional; settings: read-out: IZ
Fusarium oxysporum [26] = assay: Antifungal activity against Fusarium oxysporum at 60 ug by agar diffusion assay; assay type: functional; settings: read-out: IZ
Mycotypha microspora [27] = assay: Antifungal activity against Mycotypha microspora at 60 ug by agar diffusion assay; assay type: functional; settings: read-out: IZ
Microbotryum violaceum [28] = assay: Antifungal activity against Ustilago violacea at 60 ug by agar diffusion assay; assay type: functional, organism-based
Fusarium oxysporum [29] = assay: Antifungal activity against Fusarium oxysporum at 25 ug by agar diffusion assay; assay type: functional; settings: read-out: IZ
[Chlorella] fusca [30] = Antialgal activity against Chlorella fusca at 25 ug by agar diffusion assay; assay type: functional; settings: Scenedesmus fuscus; read-out: IZ
Microbotryum violaceum [31] = assay: Antifungal activity against Ustilago violacea at 25 ug by agar diffusion assay; assay type: functional; settings: read-out: IZ
[32] = system: Aspergillus pseudoglaucus; assay: Antifungal activity Eurotium repens at 25 ug by agar diffusion assay; assay type: functional; settings: read-out: IZ
Mycotypha microspora [33] = assay: Antifungal activity against Mycotypha microspora at 25 ug by agar diffusion assay; assay type: functional; settings: read-out: IZ
Priestia megaterium [34] = assay: Antibacterial activity against Bacillus megaterium at 25 ug by agar diffusion assay; assay type: functional; settings: read-out: IZ
Escherichia coli [35] = assay: Antibacterial activity against Escherichia coli at 25 ug by agar diffusion assay; assay type: functional; settings: read-out: IZ
Amphibalanus amphitrite = assay: Toxicity in Balanus amphitrite nauplii larvae assessed as survival rate; assay type: organism-based; settings: in vivo
Microbotryum violaceum [36] = assay: Antifungal activity against Ustilago violacea at 135 ug by agar diffusion assay; assay type: functional; settings: read-out: IZ
Escherichia coli [37] = assay: Antibacterial activity against Escherichia coli at 135 ug by agar diffusion assay; assay type: functional; settings: read-out: IZ
[38] = system: Aspergillus pseudoglaucus; assay: Antifungal activity Eurotium repens at 135 ug by agar diffusion assay; assay type: functional; settings: read-out: IZ
Priestia megaterium [39] = assay: Antibacterial activity against Bacillus megaterium at 135 ug by agar diffusion assay; assay type: functional; settings: read-out: IZ
Mycotypha microspora [40] = assay: Antifungal activity against Mycotypha microspora at 135 ug by agar diffusion assay; assay type: functional; settings: read-out: IZ
[Chlorella] fusca [41] = Antialgal activity against Chlorella fusca at 135 ug by agar diffusion assay; assay type: functional; settings: Scenedesmus fuscus; read-out: IZ
Fusarium oxysporum [42] = assay: Antifungal activity against Fusarium oxysporum at 135 ug by agar diffusion assay; assay type: functional; settings: read-out: IZ
Mycotypha microspora [43] = assay: Antifungal activity against Mycotypha microspora at 50 ug by agar diffusion assay; settings: read-out: IZ
Fusarium oxysporum [44] = assay: Antifungal activity against Fusarium oxysporum at 50 ug by agar diffusion assay; settings: read-out: IZ
[45] = system: Aspergillus pseudoglaucus; assay: Antifungal activity Eurotium repens at 50 ug by agar diffusion assay; settings: read-out: IZ
Escherichia coli [46] = assay: Antibacterial activity against Escherichia coli at 85 ug by agar diffusion assay; assay type: functional; settings: read-out: IZ
Priestia megaterium [47] = assay: Antibacterial activity against Bacillus megaterium at 85 ug by agar diffusion assay; assay type: functional; settings: read-out: IZ
Escherichia coli [48] = assay: Antibacterial activity against Escherichia coli at 45 ug by agar diffusion assay; assay type: functional; settings: read-out: IZ
[Chlorella] fusca [49] = Antialgal activity against Chlorella fusca at 45 ug by agar diffusion assay; assay type: functional; settings: Scenedesmus fuscus; read-out: IZ
Priestia megaterium [50] = assay: Antibacterial activity against Bacillus megaterium at 45 ug by agar diffusion assay; assay type: functional; settings: read-out: IZ
Fusarium oxysporum [51] = assay: Antifungal activity against Fusarium oxysporum at 45 ug by agar diffusion assay; assay type: functional; settings: read-out: IZ
Mycotypha microspora [52] = assay: Antifungal activity against Mycotypha microspora at 45 ug by agar diffusion assay; assay type: functional; settings: read-out: IZ
[53] = system: Aspergillus pseudoglaucus; assay: Antifungal activity Eurotium repens at 45 ug by agar diffusion assay; assay type: functional; settings: read-out: IZ
Microbotryum violaceum [54] = assay: Antifungal activity against Ustilago violacea at 45 ug by agar diffusion assay; assay type: functional; settings: read-out: IZ
Escherichia coli [55] = assay: Antibacterial activity against Escherichia coli at 65 ug by agar diffusion assay; assay type: functional; settings: read-out: IZ
Priestia megaterium [56] = assay: Antibacterial activity against Bacillus megaterium at 65 ug by agar diffusion assay; assay type: functional; settings: read-out: IZ

CC(=O)OC(C=C(C)C)C/C(C)=C1/CC=C(C)CC1 (stereo unspecified)
zone of inhibition at 34 µg/disc (Escherichia coli [1]): 0 mm
zone of inhibition at 34 µg/disc (Mycotypha microspora [2]): 0 mm
zone of inhibition at 34 µg/disc [3]: 0 mm
zone of inhibition at 34 µg/disc (Microbotryum violaceum [4]): 0 mm
zone of inhibition at 34 µg/disc (Fusarium oxysporum [5]): 0 mm
zone of inhibition at 34 µg/disc (Priestia megaterium [6]): 0 mm
zone of inhibition at 34 µg/disc ([Chlorella] fusca [7]): 3 mm

CC1=CC[C@]2(CC1)C(C)=C[C@@H](O)[C@H](Br)C2(C)C
zone of inhibition at 33 µg/disc (Escherichia coli [8]): 0 mm
zone of inhibition at 33 µg/disc (Priestia megaterium [9]): 0 mm
zone of inhibition at 33 µg/disc ([Chlorella] fusca [10]): 3 mm
zone of inhibition at 33 µg/disc [11]: 0 mm
zone of inhibition at 33 µg/disc (Fusarium oxysporum [12]): 0 mm
zone of inhibition at 33 µg/disc (Mycotypha microspora [13]): 3 mm
zone of inhibition at 33 µg/disc (Microbotryum violaceum [14]): 0 mm

C[C@@H]1CCC23[C@H]1CC[C@@]2(C)C[C@H](C)[C@]3(C)O (stereo partly specified)
zone of inhibition at 40 µg/disc ([Chlorella] fusca [15]): 2 mm
zone of inhibition at 40 µg/disc (Fusarium oxysporum [16]): 0 mm
zone of inhibition at 40 µg/disc (Microbotryum violaceum [17]): 0 mm
zone of inhibition at 40 µg/disc (Priestia megaterium [18]): 0 mm
zone of inhibition at 40 µg/disc (Mycotypha microspora [19]): 0 mm
zone of inhibition at 40 µg/disc (Escherichia coli [20]): 0 mm
zone of inhibition at 40 µg/disc [21]: 0 mm

C=C1CC[C@H](Br)C(C)(C)[C@]12CC=C(C)CC2
Activity ([Chlorella] fusca [22]): inactive
Activity (Escherichia coli [23]): inactive
Activity (Priestia megaterium [24]): inactive

CC1=CC[C@@]2(CC1)C(C)=CC[C@@H](Br)C2(C)C
Activity ([Chlorella] fusca [22]): inactive
Activity (Escherichia coli [23]): inactive
Activity (Priestia megaterium [24]): inactive

C[C@@H]1C[C@@H]([C@H](O)CC2CC(=O)NC(=O)C2)C(=O)[C@@H](C)C1 [CYCLOHEXIMIDE]
zone of inhibition at 60 µg/disc [25]: 5 mm
zone of inhibition at 60 µg/disc (Fusarium oxysporum [26]): 3 mm
zone of inhibition at 60 µg/disc (Mycotypha microspora [27]): 4 mm
Activity (Microbotryum violaceum [28]): Active

C=C1C[C@H](O)[C@H](Br)C(C)(C)[C@]12CC=C(C)CC2 [DESCHLOROELATOL]
zone of inhibition at 25 µg/disc (Fusarium oxysporum [29]): 0 mm
zone of inhibition at 25 µg/disc ([Chlorella] fusca [30]): 2 mm
zone of inhibition at 25 µg/disc (Microbotryum violaceum [31]): 0 mm
zone of inhibition at 25 µg/disc [32]: 18 mm
zone of inhibition at 25 µg/disc (Mycotypha microspora [33]): 20 mm
zone of inhibition at 25 µg/disc (Priestia megaterium [34]): 1 mm
zone of inhibition at 25 µg/disc (Escherichia coli [35]): 0 mm
Activity (Amphibalanus amphitrite): Toxic

C=C1C[C@H](O)[C@H](Br)C(C)(C)[C@@]12CCC(C)=C(Cl)C2 [ELATOL]
zone of inhibition at 135 µg/disc (Microbotryum violaceum [36]): 3 mm
zone of inhibition at 135 µg/disc (Escherichia coli [37]): 0 mm
zone of inhibition at 135 µg/disc [38]: 25 mm
zone of inhibition at 135 µg/disc (Priestia megaterium [39]): 2 mm
zone of inhibition at 135 µg/disc (Mycotypha microspora [40]): 25 mm
zone of inhibition at 135 µg/disc ([Chlorella] fusca [41]): 0 mm
zone of inhibition at 135 µg/disc (Fusarium oxysporum [42]): 7 mm
Activity (Amphibalanus amphitrite): Toxic

Clc1ccc(COC(Cn2ccnc2)c2ccc(Cl)cc2Cl)c(Cl)c1 (stereo unspecified) [MICONAZOLE NITRATE]
zone of inhibition at 50 µg/disc (Mycotypha microspora [43]): 7 mm
zone of inhibition at 50 µg/disc (Fusarium oxysporum [44]): 1 mm
zone of inhibition at 50 µg/disc [45]: 18 mm

CC1(C)S[C@@H]2[C@H](NC(=O)Cc3ccccc3)C(=O)N2[C@H]1C(=O)O [PENICILLIN G POTASSIUM]
zone of inhibition at 85 µg/disc (Escherichia coli [46]): 0 mm
zone of inhibition at 85 µg/disc (Priestia megaterium [47]): 20 mm

C=C1C[C@H](O)[C@H](Br)C(C)(C)[C@]12C=C[C@@](C)(O)CC2 [RIGIDOL]
zone of inhibition at 45 µg/disc (Escherichia coli [48]): 0 mm
zone of inhibition at 45 µg/disc ([Chlorella] fusca [49]): 0 mm
zone of inhibition at 45 µg/disc (Priestia megaterium [50]): 0 mm
zone of inhibition at 45 µg/disc (Fusarium oxysporum [51]): 0 mm
zone of inhibition at 45 µg/disc (Mycotypha microspora [52]): 4 mm
zone of inhibition at 45 µg/disc [53]: 0 mm
zone of inhibition at 45 µg/disc (Microbotryum violaceum [54]): 5 mm

CN[C@@H]1[C@H](O[C@H]2[C@H](O[C@H]3[C@H](O)[C@@H](O)[C@H](N=C(N)N)[C@@H](O)[C@@H]3N=C(N)N)O[C@@H](C)[C@]2(O)C=O)O[C@@H](CO)[C@H](O)[C@H]1O [STREPTOMYCIN SULFATE]
zone of inhibition at 65 µg/disc (Escherichia coli [55]): 3 mm
zone of inhibition at 65 µg/disc (Priestia megaterium [56]): 5 mm
